Assay results: ChEMBL document CHEMBL1201862, “PubChem BioAssay data set” (2004)
Activity calls are given as the source filed them.

How the values were obtained:
[1] = Counterscreen for IDE inhibitors: Luminescence-based cell-based high throughput dose response assay to identify compounds that are cytotoxic to HEK cells. [Related pubchem assays: 434962 (Primary screen (IDE inhibitors in singlicate)), 449730 (Counterscreen (Cytotoxicity in triplicate)), 435028 (Confirmation (IDE inhibitors in triplicate)) …; format: functional; settings: HEK293
[2] = biological target: T1, Insulin-degrading enzyme (Homo sapiens, UniProt P14735); assay: Dose Response: Fluorescence polarization-based cell-based high throughput dose response assay for inhibitors of insulin-degrading enzyme (IDE). [Related pubchem assays: 434962 (Primary screen (IDE inhibitors in singlicate)), 449730 (Counterscreen (Cytotoxicity in triplicate)), 435028 (Confirmation (IDE inhibitors in triplicate)), 434984 (Summary …; format: functional
T1 sequence (P14735 whole entry): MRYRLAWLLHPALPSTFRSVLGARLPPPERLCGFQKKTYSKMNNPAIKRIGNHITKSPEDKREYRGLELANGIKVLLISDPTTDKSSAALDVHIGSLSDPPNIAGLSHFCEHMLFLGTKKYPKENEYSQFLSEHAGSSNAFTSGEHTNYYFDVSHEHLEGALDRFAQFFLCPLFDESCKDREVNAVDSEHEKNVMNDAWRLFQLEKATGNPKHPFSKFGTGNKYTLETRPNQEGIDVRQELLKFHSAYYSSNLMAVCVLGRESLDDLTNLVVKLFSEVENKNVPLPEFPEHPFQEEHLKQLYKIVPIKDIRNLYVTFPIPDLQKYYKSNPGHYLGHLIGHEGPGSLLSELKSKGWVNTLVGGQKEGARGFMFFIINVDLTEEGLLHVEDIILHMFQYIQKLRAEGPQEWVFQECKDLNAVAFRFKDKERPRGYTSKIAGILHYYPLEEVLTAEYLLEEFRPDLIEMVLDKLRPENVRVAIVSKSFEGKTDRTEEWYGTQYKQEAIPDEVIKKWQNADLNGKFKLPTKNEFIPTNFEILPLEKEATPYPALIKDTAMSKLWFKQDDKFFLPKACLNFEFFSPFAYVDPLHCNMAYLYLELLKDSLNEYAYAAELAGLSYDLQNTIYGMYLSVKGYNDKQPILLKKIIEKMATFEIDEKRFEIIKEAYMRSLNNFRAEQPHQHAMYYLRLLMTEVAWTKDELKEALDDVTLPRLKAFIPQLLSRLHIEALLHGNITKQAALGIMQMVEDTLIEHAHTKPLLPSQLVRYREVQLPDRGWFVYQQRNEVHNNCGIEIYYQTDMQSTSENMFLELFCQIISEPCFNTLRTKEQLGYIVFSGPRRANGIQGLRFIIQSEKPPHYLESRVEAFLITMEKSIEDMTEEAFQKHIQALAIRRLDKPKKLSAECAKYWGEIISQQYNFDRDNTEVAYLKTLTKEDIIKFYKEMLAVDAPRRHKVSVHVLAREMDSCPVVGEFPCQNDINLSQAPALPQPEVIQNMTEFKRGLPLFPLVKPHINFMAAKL

[3] = biological target: T2, Mannose-6-phosphate isomerase (Homo sapiens, UniProt P34949); assay: phosphomannose isomerase inhibition – biochemical, fluorescence intensity, confirmation (AID 1535)
T2 sequence (P34949 whole entry): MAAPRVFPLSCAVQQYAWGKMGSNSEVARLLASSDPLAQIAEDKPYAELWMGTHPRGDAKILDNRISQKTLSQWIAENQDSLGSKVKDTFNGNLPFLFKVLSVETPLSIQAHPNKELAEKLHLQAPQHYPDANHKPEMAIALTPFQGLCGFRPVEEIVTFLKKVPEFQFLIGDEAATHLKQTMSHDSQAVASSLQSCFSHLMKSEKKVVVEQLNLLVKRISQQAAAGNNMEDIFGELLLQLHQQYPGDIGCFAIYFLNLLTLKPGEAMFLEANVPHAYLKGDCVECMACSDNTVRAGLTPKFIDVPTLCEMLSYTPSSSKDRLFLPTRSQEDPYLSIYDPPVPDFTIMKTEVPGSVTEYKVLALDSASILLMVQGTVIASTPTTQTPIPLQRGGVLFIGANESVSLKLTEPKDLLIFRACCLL

[4] = biological target: DNA dC->dU-editing enzyme APOBEC-3A (Homo sapiens, UniProt P31941); assay: A3A deaminase inhibition for selectivity – biochemical, dose response (AID 504722); format: functional
[5] = biological target: T3, Phosphomannomutase 2 (Homo sapiens, UniProt O15305); assay: Counter screen SAR assay for PMM2 inhibitors via a fluorescence intensity assay. [Related pubchem assays (depositor defined):AID1545, AID1574]
T3 sequence (O15305 whole entry): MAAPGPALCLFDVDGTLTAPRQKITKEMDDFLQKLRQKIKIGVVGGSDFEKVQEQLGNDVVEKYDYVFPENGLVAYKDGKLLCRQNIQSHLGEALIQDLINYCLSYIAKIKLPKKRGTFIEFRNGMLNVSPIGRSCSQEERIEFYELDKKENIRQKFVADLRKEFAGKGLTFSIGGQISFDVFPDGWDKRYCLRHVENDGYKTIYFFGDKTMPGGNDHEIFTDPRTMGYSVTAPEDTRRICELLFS

[6] = biological target: Phosphoethanolamine/phosphocholine phosphatase (Homo sapiens, UniProt Q8TCT1); assay: SAR assay for compounds that inhibit PHOSPHO1. [Related pubchem assays (depositor defined):AID1545, AID1565, AID1574]
[7] = biological target: DNA dC->dU-editing enzyme APOBEC-3G (Homo sapiens, UniProt Q9HC16); assay: Dose Response confirmation of small molecule APOBEC3G DNA Deaminase Inhibitors via a fluorescence-based single-stranded DNA deaminase assay. [Related pubchem assays (depositor defined):AID493012, AID493028]; format: functional
[8] = biological target: T4, Alkaline phosphatase, tissue-nonspecific isozyme (Homo sapiens, UniProt P05186); assay: potency against alkaline phosphatase TNAP – biochemical, luminescent, dose response, SAR follow-up (AID 1056)
T4 sequence (P05186 whole entry): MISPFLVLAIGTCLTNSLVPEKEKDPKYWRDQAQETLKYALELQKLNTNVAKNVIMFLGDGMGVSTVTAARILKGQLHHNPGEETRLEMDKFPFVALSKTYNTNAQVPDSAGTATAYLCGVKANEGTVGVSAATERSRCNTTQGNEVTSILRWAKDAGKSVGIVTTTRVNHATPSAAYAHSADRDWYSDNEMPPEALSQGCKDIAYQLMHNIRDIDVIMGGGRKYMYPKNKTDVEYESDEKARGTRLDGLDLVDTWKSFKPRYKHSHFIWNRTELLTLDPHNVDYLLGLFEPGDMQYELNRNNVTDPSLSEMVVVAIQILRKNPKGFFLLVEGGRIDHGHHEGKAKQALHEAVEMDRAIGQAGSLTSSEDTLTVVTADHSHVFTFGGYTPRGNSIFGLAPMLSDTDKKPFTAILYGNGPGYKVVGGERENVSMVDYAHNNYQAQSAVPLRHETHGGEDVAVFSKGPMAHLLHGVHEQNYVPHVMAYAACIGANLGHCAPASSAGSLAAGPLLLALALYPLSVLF

[9] = biological target: T5, Rac GTPase-activating protein 1 (Homo sapiens, UniProt Q9H0H5); assay: blockers of MgcRacGAP-driven Rac1 GTP hydrolysis – biochemical, ADP Hunter fluorescence, primary and confirmatory, confirmation (AID 624330); format: functional
T5 sequence (Q9H0H5 whole entry): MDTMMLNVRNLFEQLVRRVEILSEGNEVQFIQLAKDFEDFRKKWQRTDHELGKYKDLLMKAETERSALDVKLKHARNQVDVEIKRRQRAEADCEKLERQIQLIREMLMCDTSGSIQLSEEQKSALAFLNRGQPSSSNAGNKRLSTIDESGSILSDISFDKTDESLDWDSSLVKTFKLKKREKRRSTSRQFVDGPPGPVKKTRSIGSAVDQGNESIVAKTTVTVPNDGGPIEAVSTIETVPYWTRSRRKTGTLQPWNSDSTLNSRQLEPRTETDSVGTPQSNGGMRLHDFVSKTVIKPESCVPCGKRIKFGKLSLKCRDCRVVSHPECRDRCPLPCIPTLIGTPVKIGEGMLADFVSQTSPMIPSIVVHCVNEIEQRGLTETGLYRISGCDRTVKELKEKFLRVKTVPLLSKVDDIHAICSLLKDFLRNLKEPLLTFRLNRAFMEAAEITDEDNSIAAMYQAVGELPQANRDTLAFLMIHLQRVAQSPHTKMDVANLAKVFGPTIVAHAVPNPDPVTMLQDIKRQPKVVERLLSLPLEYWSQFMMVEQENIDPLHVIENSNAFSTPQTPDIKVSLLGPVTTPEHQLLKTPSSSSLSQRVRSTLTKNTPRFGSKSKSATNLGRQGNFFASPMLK

DNA dC->dU-editing enzyme APOBEC-3A, sequence (P31941 whole entry): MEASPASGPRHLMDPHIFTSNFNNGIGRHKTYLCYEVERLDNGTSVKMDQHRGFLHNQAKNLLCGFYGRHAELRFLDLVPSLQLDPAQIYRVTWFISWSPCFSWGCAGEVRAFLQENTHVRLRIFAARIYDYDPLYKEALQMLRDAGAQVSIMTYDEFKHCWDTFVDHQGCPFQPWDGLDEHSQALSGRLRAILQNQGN
Phosphoethanolamine/phosphocholine phosphatase, sequence (Q8TCT1 whole entry): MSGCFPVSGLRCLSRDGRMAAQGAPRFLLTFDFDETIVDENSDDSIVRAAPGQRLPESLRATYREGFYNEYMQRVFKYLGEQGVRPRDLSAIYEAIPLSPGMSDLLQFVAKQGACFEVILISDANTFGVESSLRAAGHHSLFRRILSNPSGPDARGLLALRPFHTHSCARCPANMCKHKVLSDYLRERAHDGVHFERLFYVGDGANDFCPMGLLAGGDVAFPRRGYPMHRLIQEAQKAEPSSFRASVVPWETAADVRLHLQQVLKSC
DNA dC->dU-editing enzyme APOBEC-3G, sequence (Q9HC16 whole entry): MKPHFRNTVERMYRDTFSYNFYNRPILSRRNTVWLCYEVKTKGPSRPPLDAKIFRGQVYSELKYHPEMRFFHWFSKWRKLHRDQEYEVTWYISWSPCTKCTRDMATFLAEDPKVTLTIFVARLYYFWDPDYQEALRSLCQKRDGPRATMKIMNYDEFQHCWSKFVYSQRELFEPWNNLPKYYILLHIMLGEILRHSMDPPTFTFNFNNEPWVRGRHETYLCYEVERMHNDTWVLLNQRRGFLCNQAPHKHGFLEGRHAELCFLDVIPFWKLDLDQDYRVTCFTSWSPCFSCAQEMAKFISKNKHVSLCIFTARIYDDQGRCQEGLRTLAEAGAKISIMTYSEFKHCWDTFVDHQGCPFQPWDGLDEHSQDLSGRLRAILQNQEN

O=C(O)c1cccc(-n2sc3ccccc3c2=O)c1
IC50 [1]: 36.7 µM (not active)
IC50 [2]: 2.38 µM (active)
IC50 [3]: 3.29 µM (active)
IC50 [4]: > 100 µM (inactive)
IC50 [5]: 52.5 µM (active)
IC50 [6]: 1.14 µM (inactive)
IC50 [7]: 4.85 µM (active)
IC50 [8]: > 100 µM (inactive)
IC50 [9]: 30.1 µM (active)
